Structures can show the parent of a compound that is named as a salt.
Key:
[1] = molecular target: T1, V2 Recepter (rat kidney plasma membrane preparations) (Rattus norvegicus, UniProt Q00788); assay: V2 Recepter binding assay; details: [3H]-Arg-vasopressin 4×10^-10 M, 4° C., pH 8.0, rat kidney plasma membrane
T1 construct: rat kidney plasma membrane preparations; from tissue; host or cells: rat kidney plasma membranes
Experimental: Test 2: V2 Recepter binding assay
By using rat kidney plasma membrane preparations prepared according to Hechter's method [by O. Hechter: J. Bio. Chem., 2.53, 3211 (1978)], the plasma membrane (100,000 dpm, 4×10^-10 M) of [^3 H]-Arg-vasopressin and a test compound (0.6 mg, 10^-10 to 10^-5 M) were incubated at 4° C. for 3 hours in 250 μl (in total volume) of 100 mM Tris-HCl buffer (pH=8.0), containing, 5 mM MgCl2, 1 mM EDTA and 0.1% BSA. After the incubation, the mixture, the mixture was filtered by using a glass filter (GF/F) so as to separate the membrane preparation combining with vasopressin, then washed twice with the buffer (5 ml). This glass filter was taken out and mixed with liquid scintillation cocktail. The amount of [^3 H]-vasopressin combining with the membrane was measured by a liquid scintillation counter and the rate of inhibitory effect of the test compound was calculated according to the following equation: Rate of the inhibitory
C1 : the amount of [^3 H]-vasopressin combining with the membrane in the presence of the testcompound of a known amount,
(§1) C0 : the amount of [^3 H]-vasopressin combining with the membrane in the absence of the test compound,
B1 : the amount of [^3 H]-vasopressin combining with the mebrane in the presence of the excess amount of vasopressin (10^-6 M).
The results are expressed as IC50 value, which is the concentration of the test compound required to achieve the inhibitory effect in the rate of 50%, and are shown in the following Table 157.

[2] = molecular target: T2, Oxytocin receptor (uterin muscle membrane preparation) (Rattus norvegicus, UniProt P70536); assay: Oxytocin receptor binding assay; details: [3H]-oxytocin 10^-9 M, 25°, one hour, pH 8.0, uterin muscle membrane, DES-treated
T2 construct: was homogenized, which was used as a membrane; from tissue; host or cells: uterine muscle membranes from diethylstilbestrol-treated animals
T2 sequence (P70536 1-388): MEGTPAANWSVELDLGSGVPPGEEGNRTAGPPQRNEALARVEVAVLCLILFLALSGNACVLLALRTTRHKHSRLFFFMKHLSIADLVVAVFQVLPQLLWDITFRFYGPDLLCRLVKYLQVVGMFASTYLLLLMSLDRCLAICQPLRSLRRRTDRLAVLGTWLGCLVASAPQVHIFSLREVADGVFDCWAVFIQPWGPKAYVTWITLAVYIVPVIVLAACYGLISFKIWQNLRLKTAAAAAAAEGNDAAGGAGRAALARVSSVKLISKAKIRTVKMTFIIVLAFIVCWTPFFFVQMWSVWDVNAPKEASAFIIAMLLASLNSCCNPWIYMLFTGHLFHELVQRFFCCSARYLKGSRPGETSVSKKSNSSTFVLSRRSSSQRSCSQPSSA
Experimental: Test-5 Oxytocin receptor binding assay
In accordance with Chan's method [by W. Y. Chan, et al.: Endocrinology, 126, 2095-2101 (1990)], the uterin muscle benn injected subcutaneously with diethylstilbe-sterol (DES) the day before and was homogenized, which was used as a membrane prepara tion. The membrane preparation (0.2 mg), [^3 H]-oxytocin (100,000 dpm, 10^-9 M), a test compound (10^-9 to 10^-5 M) were incubated at 25°. for one hour in 100 mM Tris-HCl buffer (pH=8.0, 250 μl) containing 5 mM MgCl2, 1 mM EDTA and 0.1% BSA. The mixture was filtered through a glass filter (GF/F) so as to separate the membrane preparation combining with [^3 H]-oxytocin, then, was washed twicw with the buffer (5 ml). The glass filter was put into a vial and mixed with Aquasole (a liquid scintillation cocktail). The amount of [^3 H]-oxytocin combining w ith the membrane was measured by a liquid scintillation counter. The rate of the inhibitory effect of the test compound was calculated according to the equation as follows: […]
C1 : the amount of [^3 H]-oxytocin combining with the membrane in the presence of a test compound (in known amount),
C0 : the amount of [^3 H]-oxytocin combinig with the membrane in the absence of a test compound,
B: the amount of [^3 H]-oxytocin combining with the membrane in the presence of the excess amount of oxytocin (5×10^-6 M).
The results are expressed as IC50 values, which is the concentration of the test compound required to achieve the inhibitory effect in the rate of 50%.

[3] = molecular target: T3, V1 Recepter (rat liver plasma membrane preparations) (Rattus norvegicus, UniProt P30560); assay: V1 Recepter binding assay; details: [3H]-Arg-vasopressin 2×10^-10 M, 37° C., 10 minutes, pH 8.0, rat liver plasma membrane
T3 construct: rat liver plasma membrane preparations; from tissue; host or cells: rat liver plasma membranes
Experimental: Test-1: V1 Recepter binding assay
By using rat liver plasma membrane preparations prepared according to Ichiraha's method [by Akira Ichihara: J. Bio. Chem., 258, 9283 (1983)], the plasma membrane (50,000 dpm, 2×10^-10 M) of [^3 H]-Arg-vasopressin and a test compound (60 μg, 10^-8 to 10^-4 M) were incubated at 37° C. for 10 minutes in 250 μl (in total volume) of 100 mM Tris-HCl buffer (pH=8.0), containing 5 mM MgCl2, 1 mM EDTA and 0.1% BSA. After the incubation, the mixture was filtered three times by using a glass filter (GF/F) so as to separate the membrane preparation by combining with vasopressin and then washed with the buffer (5 ml). This glass filter was taken out and mixed with a liquid of scintillation cocktail. The amount of [^3 H]-vasopressin combining with the membrane was measured by liquid scintillation counter and the rate of inhibitory effect of the test compound was calculated according to the following equation: […]
C1 : the amount of [^3 H]-vasopressin combining with the membrane in the presence of the test compound of a known amount,
as §1
B1 : the amount of [^3 H]-vasopressin combining with the membrane in the presence of the excess amount of vasopressin (10^-6 M).
The results are expressed as IC50 value, which is the concentration of the test compound required to achieve the inhitory effect in the rate of 50% and are shown in the following Table 156.

T1 sequence (Q00788 whole entry): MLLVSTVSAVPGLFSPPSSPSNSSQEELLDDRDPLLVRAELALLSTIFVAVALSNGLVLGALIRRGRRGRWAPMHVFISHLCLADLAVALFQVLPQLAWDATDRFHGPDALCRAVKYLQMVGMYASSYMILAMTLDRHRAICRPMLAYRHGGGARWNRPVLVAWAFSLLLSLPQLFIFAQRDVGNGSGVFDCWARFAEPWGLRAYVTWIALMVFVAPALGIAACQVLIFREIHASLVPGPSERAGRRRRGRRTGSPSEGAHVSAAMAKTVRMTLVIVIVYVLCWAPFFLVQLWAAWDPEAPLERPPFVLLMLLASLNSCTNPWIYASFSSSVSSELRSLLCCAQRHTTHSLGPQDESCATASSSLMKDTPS
T3 sequence (P30560 whole entry): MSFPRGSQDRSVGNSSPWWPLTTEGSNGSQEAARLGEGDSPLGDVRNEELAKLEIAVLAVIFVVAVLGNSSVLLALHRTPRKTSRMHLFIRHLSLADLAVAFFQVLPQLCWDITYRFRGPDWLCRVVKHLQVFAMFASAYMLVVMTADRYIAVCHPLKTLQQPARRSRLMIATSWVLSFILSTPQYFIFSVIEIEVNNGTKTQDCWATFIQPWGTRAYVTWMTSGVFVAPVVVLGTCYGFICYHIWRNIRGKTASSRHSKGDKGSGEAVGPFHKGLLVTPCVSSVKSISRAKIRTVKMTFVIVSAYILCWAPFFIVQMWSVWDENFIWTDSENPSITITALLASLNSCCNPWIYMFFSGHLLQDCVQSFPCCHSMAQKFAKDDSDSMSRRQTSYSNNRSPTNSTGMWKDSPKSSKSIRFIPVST

| SMILES | IC50 [1] | IC50 [2] | IC50 [3] |
| --- | --- | --- | --- |
| C=CCN(C)CCC1CCCN(C(=O)c2ccc(NC(=O)c3ccccc3Cl)cc2C)c2ccc(F)cc21 (centres unmarked) [Example 129, 5-[2-(N-Allyl-N-methylamino)ethyl]-7-fluoro-1-[2-methyl-4-(2-chlorobenzoylamino)benzoyl]-2,3,4,5-tetrahydro-1H-benzoazepine] | 12 nM | – | – |
| C=CCNCCC1CCCN(C(=O)c2ccc(NC(=O)c3ccccc3Cl)cc2C)c2ccc(F)cc21 (centres unmarked) [Example 101, 5-(2-Allylaminoethyl)-7-fluoro-1-[2-methyl-4-(2-chlorobenzoylamino)benzoyl]-2,3,4,5-tetrahydro-1H-benzoazepine] | 7 nM | 5300 nM | – |
| Cc1cc(NC(=O)c2ccccc2Cl)ccc1C(=O)N1CCCC(CCN2CCCCC2)c2cc(Cl)ccc21 (centres unmarked) [Example 96, 5-[2-(1-Piperidinyl)ethyl]-7-chloro-1-[2-methyl-4-(2-chlorobenzoylamino)benzoyl]-2,3,4,5-tetrahydro-1H-benzoazepine.cndot.hydrochloride] | 9 nM | 4400 nM | – |
| Cc1cc(NC(=O)c2ccccc2Cl)ccc1C(=O)N1CCCC(CCNC2CC2)c2cc(Cl)ccc21 (centres unmarked) [Example 102, 5-(2-Cyclopropylaminoethyl)-7-chloro-1-[2-methyl-4-(2-chlorobenzoylamino)benzoyl]-2,3,4,5-tetrahydro-1H-benzoazepine.cndot.hydrochloride] | 7.1 nM | 2900 nM | – |
| Cc1cc(NC(=O)c2ccccc2Cl)ccc1C(=O)N1CCCC(OCCn2cnnn2)c2cc(Cl)ccc21 (centres unmarked) [Example 93, 5-[2-(1,2,3,4-Tetrazol-1-yl)ethoxy]-7-chloro-1-[2-methyl-4-(2-chlorobenzoylamino)benzoyl]-2,3,4,5-tetrahydro-1H-benzoazepine] | 14 nM | – | – |
| CC(=O)NC1CCN(CCOC2CCCN(C(=O)c3ccc(NC(=O)c4ccccc4Cl)cc3C)c3ccc(Cl)cc32)CC1 (centres unmarked) [Example 75, 5-[2-(4-Acetylamino-1-piperidinyl)ethoxy]-7-chloro-1-[2-methyl-4-(2-chlorobenzoylamino)benzoyl]-2,3,4,5-tetrahydro-1H-benzoazepine] | 32 nM | – | – |
| CC(=O)NC1CCN(CCC2CCCN(C(=O)c3ccc(NC(=O)c4ccccc4Cl)cc3C)c3ccc(Cl)cc32)CC1 (centres unmarked) [Example 76, 5-[2-(4-Acetylamino-1-piperidinyl)ethyl]-7-chloro-1-[2-methyl-4-(2-chlorobenzoylamino)benzoyl]-2,3,4,5-tetrahydro-1H-benzoazepine] | 14 nM | – | – |
| Cc1cc(NC(=O)c2ccccc2Cl)ccc1C(=O)N1CCCC(CCn2cnnn2)c2cc(Cl)ccc21 (centres unmarked) [Example 98] | 9 nM | – | – |
| C=CCOC1CCCN(C(=O)c2ccc(NC(=O)c3ccccc3C)cc2)c2ccc(Cl)cc21 (centres unmarked) [Example 64, 5-Allyloxy-7-chloro-1-[4-(2-methylbenzoylamino)benzoyl]-2,3,4,5-tetrahydro-1H-benzoazepine] | – | – | 45 nM |
| Cc1cc(NC(=O)c2ccccc2Cl)ccc1C(=O)N1CCCC(CCn2ncnn2)c2cc(Cl)ccc21 (centres unmarked) [Example 99] | 12 nM | 2800 nM | – |
| C=CCN(C)CCC1CCCN(C(=O)c2ccc(NC(=O)c3ccccc3Cl)cc2C)c2ccc(Cl)cc21 (centres unmarked) [Example 100] | 4.7 nM | 4040 nM | – |
| Cc1cc(NC(=O)c2ccccc2Cl)ccc1C(=O)N1CCCC(CCN2CCCC2)c2cc(Cl)ccc21 (centres unmarked) [Example 97, 5-[2-(1-Pyrrolidinyl)ethyl]-7-chloro-1-[2-methyl-4-(2-chlorobenzoylamino)benzoyl]-2,3,4,5-tetrahydro-1H-benzoazepine.cndot.hydrochloride] | 7.2 nM | 4070 nM | – |
| Cc1cc(NC(=O)c2ccccc2Cl)ccc1C(=O)N1CCCC(OCCn2cncn2)c2cc(Cl)ccc21 (centres unmarked) [Example 92] | 7.4 nM | – | – |
| C#CCNCCC1CCCN(C(=O)c2ccc(NC(=O)c3ccccc3Cl)cc2C)c2ccc(Cl)cc21 (centres unmarked) [Example 103, 5-(2-Propargylaminoethyl)-7-chloro-1-[2-methyl-4-(2-chlorobenzoylamino)benzoyl]-2,3,4,5-tetrahydro-1H-benzoazepine.cndot.hydrochloride] | 8 nM | 3000 nM | – |
| Cc1cc(NC(=O)c2ccccc2Cl)ccc1C(=O)N1CCCC(CCN2CCOCC2)c2cc(Cl)ccc21 (centres unmarked) [Example 95] | 17 nM | – | – |
| COc1cc(NC(=O)c2ccccc2C)ccc1C(=O)N1CCC=C(CC(=O)N2CCN(C)CC2)c2cc(F)ccc21 [Example 86, 5-(4-Methyl-1-piperazinyl)carbonylmethyl-7-fluoro-1-[2-methoxy-4-(2-methylbenzoylamino)benzoyl]-2,3,-dihydro-1H-benzoazepine] | 59 nM | – | – |
| Cc1cc(NC(=O)c2ccccc2Cl)ccc1C(=O)N1CCCC(CCn2cncn2)c2cc(Cl)ccc21 (centres unmarked) [Example 105, 5-[2-(1,2,4-Triazol-1-yl)ethyl]-7-chloro-1-[2-methyl-4-(2-chlorobenzoylamino)benzoyl]-2,3,4,5-tetrahydro-1H-benzoazepine] | 7.5 nM | – | – |
| COc1cc(C(=O)N2CCCC(CC(=O)N3CCN(C)CC3)c3cc(Cl)ccc32)ccc1NC(=O)c1ccccc1Br (centres unmarked) [Example 119, 5-(4-Methyl-1-piperazinyl)carbonylmethyl-7-chloro-1-[3-methoxy-4-(2-bromobenzoylamino)benzoyl]-2,3,4,5-tetrahydro-1H-benzoazepine] | – | 270 nM | – |
| CN1CCN(C(=O)CC2CCCN(C(=O)c3ccc(NC(=O)c4ccccc4Cl)cc3)c3ccc(Cl)cc32)CC1 (centres unmarked) [Example 116] | – | 380 nM | – |
| Cc1cc(NC(=O)c2ccccc2Cl)ccc1C(=O)N1CCCC(CC(N)=O)c2cc(Cl)ccc21 (centres unmarked) [Example 123] | – | 2200 nM | – |
| COc1cc(C(=O)N2CCCC(CC(=O)N(C)C)c3cc(Cl)ccc32)ccc1NC(=O)c1ccccc1Br (centres unmarked) [Example 120, 5-Dimethylaminocarbonylmethyl-7-chloro-1-[3-methoxy-4-(2-bromobenzoylamino)benzoyl]-2,3,4,5-tetrahydro-1H-benzoazepine] | – | 190 nM | – |
| COc1cc(NC(=O)c2ccccc2Br)ccc1C(=O)N1CCCC(CC(=O)N2CCCC2)c2cc(F)ccc21 (centres unmarked) [Example 114] | – | 170 nM | – |
